Experimental data taken from PMC7076710, “Synthesis, Identification, and Structure–Activity Relationship Analysis of GATA4 and NKX2-5 Protein–Protein Interaction Modulators” (Journal of Medicinal Chemistry, 2019).

System: COS-1 cells
Experiment: MTT assay (cell viability)
Assay type: cell-based
Details: for MTT.3µM / MTT.10µM / MTT.30µM / MTT.1µM: cell viability; for toxicity class in the MTT assay: 24-h exposure, classified at 10 μM

`Cc1onc(-c2ccccc2)c1C(=O)N(C1=NC(C)CS1)c1ccc(Cl)cc1` (stereo not shown) [Compound 2] was tested, and the MTT.3µM (COS-1 cells) was 105.13%, the MTT.10µM (COS-1 cells) was 107.32% and the MTT.30µM (COS-1 cells) was 87.3%. For the same compound, the “toxicity class in the MTT assay” value was “nontoxic (nontoxic compounds (cell viability >90%))”.
`CCN(CC)c1ccc(NC(=O)c2cnsc2)cc1` [Compound 47s] was tested, and the MTT.1µM was 103.66, the MTT.3µM was 95.56 and the MTT.10µM was 92.49. The MTT.30µM was 105.44 and the “toxicity class in the MTT assay” value was “nontoxic (nontoxic compounds (cell viability >90%))”.
In the case of `CCN(CC)c1ccc(NC(=O)c2c(-c3ccccc3)noc2C)cc1` [Compound 1, N-[4-(Diethylamino)phenyl]-5-methyl-3-phenylisoxazole-4-carboxamide], the MTT.1µM (COS-1 cells) was 98.55%, the MTT.3µM (COS-1 cells) was 96.23% and the MTT.10µM (COS-1 cells) was 89.96%. The MTT.30µM (COS-1 cells) was 91.57% and the “toxicity class in the MTT assay” value was “toxic (Toxic compounds (cell viability <90%))”.
Compound `Cc1onc(-c2ccccc2)c1COc1ccc(C(=O)OCCC#N)cc1` [Compound 35a, 2-Cyanoethyl 4-[(5-Methyl-3-phenylisoxazol-4-yl)methoxy]benzoate] has an MTT.1µM of 83.35, an MTT.3µM of 72.67 and an MTT.10µM of 66.11. For the same compound, the MTT.30µM was 61.55 and the “toxicity class in the MTT assay” value was “most toxic”.
Compound “N-[4-(Diethylamino)phenyl]-3-methyl-5-(4-methyl-1,2,3-thiadiazol-5-yl)isoxazole-4-carboxamide [Compound 47c]” has an MTT.1µM of 88.76, an MTT.3µM of 85.01 and an MTT.10µM of 81.61. The MTT.30µM was 78.65 and the “toxicity class in the MTT assay” value was “high toxicity”.
Compound `COc1ccc(-c2cc(NC(=O)c3ccc(C(C)(C)C)cc3)n[nH]2)cc1` [Compound 72] has an MTT.1µM of 110.93, an MTT.3µM of 101.15 and an MTT.10µM of 102.37. For the same compound, the MTT.30µM was 107.89 and the “toxicity class in the MTT assay” value was “nontoxic (nontoxic compounds (cell viability >90%))”.
`CCC(=O)N(Cc1ccc(N(CC)CC)cc1)c1c(-c2ccccc2)noc1C` [Compound 58] was tested, and the MTT.1µM was 99.35, the MTT.3µM was 82.12 and the MTT.10µM was 76.17. For the same compound, the MTT.30µM was 63.57 and the “toxicity class in the MTT assay” value was “most toxic”.
